Measurements published in patent US8183388B2, “Androgen receptor modulator and uses thereof” (Eli Lilly and Company, priority 2009, dated 2012).
Where two headings read alike, the source gives them in different places.

Key:
[1] = target: T1, human AR (androgen receptor) (Homo sapiens, UniProt P10275); assay: Steroid hormone nuclear receptor binding assay, AR; conditions: HEK293 lysate overexpressing human AR, [3H]-methyltrienolone
T1 construct: expressed in transfected cells; host or cells: HEK293 (lysate, 293-AR)
T1 sequence (P10275 1-920): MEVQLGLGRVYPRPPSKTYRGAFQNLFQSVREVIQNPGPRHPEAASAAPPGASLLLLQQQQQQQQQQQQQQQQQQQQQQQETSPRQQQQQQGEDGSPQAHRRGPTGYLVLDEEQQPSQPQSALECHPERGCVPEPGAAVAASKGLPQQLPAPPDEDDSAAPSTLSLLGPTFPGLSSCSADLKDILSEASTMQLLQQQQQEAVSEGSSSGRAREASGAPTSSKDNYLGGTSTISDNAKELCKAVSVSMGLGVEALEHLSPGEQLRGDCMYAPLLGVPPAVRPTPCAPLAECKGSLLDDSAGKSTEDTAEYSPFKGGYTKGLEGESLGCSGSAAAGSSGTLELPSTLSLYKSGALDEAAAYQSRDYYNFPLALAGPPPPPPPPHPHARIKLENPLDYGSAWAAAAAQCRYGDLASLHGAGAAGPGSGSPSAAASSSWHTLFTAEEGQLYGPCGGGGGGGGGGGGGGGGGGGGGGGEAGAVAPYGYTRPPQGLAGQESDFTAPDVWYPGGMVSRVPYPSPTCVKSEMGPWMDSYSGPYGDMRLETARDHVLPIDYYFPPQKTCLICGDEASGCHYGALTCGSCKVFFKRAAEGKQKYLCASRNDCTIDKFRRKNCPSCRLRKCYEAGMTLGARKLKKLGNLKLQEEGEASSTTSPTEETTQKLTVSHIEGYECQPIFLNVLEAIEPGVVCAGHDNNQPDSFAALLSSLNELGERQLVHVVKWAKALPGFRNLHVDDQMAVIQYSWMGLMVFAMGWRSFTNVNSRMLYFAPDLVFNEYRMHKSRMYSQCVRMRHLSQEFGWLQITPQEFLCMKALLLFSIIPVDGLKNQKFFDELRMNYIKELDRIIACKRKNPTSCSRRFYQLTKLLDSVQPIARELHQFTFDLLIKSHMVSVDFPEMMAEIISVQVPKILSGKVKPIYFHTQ
Description: Cell lysates from human embryonic kidney HEK293 cells overexpressing human MR (mineralocorticoid receptor), GR (glucocorticoid receptor), AR (androgen receptor), or PR (progesterone receptor) are used for receptor-ligand competition binding assays to determine Ki values. Typical procedures are provided below
Briefly, steroid receptor competition binding assays are run in a buffer containing 20 mM HEPES buffer (pH=7.6), 0.2 mM EDTA, 75 mM NaCl, 1.5 mM MgCl2, 20% glycerol, 20 mM sodium molybdate, 0.2 mM DTT (dithiothreitol), 20 μg/mL aprotinin and 20 μg/mL leupeptin (assay buffer). […] Assays are typically run in 96-well format. Competing test compounds are added at various concentrations ranging from about 0.01 nM to 10 μM. Non-specific binding is determined in the presence of 500 nM aldosterone for MR binding, 500 nM dexamethasone for GR binding, or 500 nM methyltrienolone for AR and PR binding. The binding reactions (140 μL) are incubated overnight at 4° C., then 70 μL of cold charcoal-dextran buffer (containing per 50 mL of assay buffer, 0.75 g of charcoal and 0.25 g of dextran) is added to each reaction. […] After an incubation of 2 hours, plates are read in a Wallac Microbeta counter.
The Kd for [^3H]-aldosterone for MR binding, [^3H]-dexamethasone for GR binding, [^3H]-methyltrienolone for AR binding, or [^3H]-methyltrienolone for PR binding, is determined by saturation binding. […]

[2] = Determination of plasma exposure; assay type: in vivo; conditions: Sprague Dawley, rat, male rats, read-out: AUC (area under the plasma concentration time curve)
Description: Groups of male Sprague Dawley rats (6 animals/group) are dosed either orally (dosing volume of 1.25 ml/kg; vehicle of 5% DMSO/95% HEC) or subcutaneously (dosing volume of 2.5 ml/kg; vehicle of 5% DMSO/95% soybean oil) with 10 mg/kg p.o, 1 mg/kg s.c., 3 mg/kg s.c., or 10 mg/kg s.c. of the compound of Formula (I), once per day for two weeks. Starting on the second to last day of dosing, plasma samples are collected at 0.5, 2, 4, or 24 hours post-dosing (two animals are sampled at each time-point, with the same animals being used for the 0.5 and 24 hour time-point samples). The plasma concentration of the compound of Formula (I) is determined for each collected sample using LC/MS/MS (Sciex API-4000 LC/MS/MS system). The resulting concentrations are used to construct an area under the plasma concentration time curve (AUC) for each administered dose as an index of exposure. Following a protocol essentially as described above, the administered doses of the compound of Formula (I) produced the following AUC values: 10 mg/kg p.o: about 295,511 ng·hr./ml.; 1 mg/kg s.c.: about 38,963 ng·hr./ml.; 3 mg/kg s.c.: about 137,056 ng·hr./ml.; and 10 mg/kg s.c.: about 218,537 ng·hr./ml.

SMILES: CC(C)OC(=O)N[C@H]1Cc2c(n(C[C@H]3OCC[C@@H]3O)c3ccc(C#N)cc23)C1 [compound of Formula (I), [(S)-7-Cyano-4-((2R,3S)-3-hydroxytetrahydrofuran-2-ylmethyl)-1,2,3,4-tetrahydrocyclopenta[b]indol-2-yl]-carbamic acid isopropyl ester]
- Ki [1]: ~10 nM
- AUC ([2]; po, 10 mg/kg p.o. once per day for two weeks, 5% DMSO/95% HEC): ~296 µg·h/mL
- AUC ([2]; sc, 1 mg/kg s.c. once per day for two weeks, 5% DMSO/95% soybean oil): ~39 µg·h/mL
- AUC ([2]; sc, 3 mg/kg s.c. once per day for two weeks, 5% DMSO/95% soybean oil): ~137 µg·h/mL
- AUC ([2]; sc, 10 mg/kg s.c. once per day for two weeks, 5% DMSO/95% soybean oil): ~219 µg·h/mL
